# Experimental data from publication PMC5844868, “Increased intracellular activity of MP1102 and NZ2114 against Staphylococcus aureus in vitro and in vivo” (Scientific Reports, 2018).
# Where two headings read alike, the source gives them in different places. Peptide text beside a SMILES is read from it.
# Legend:
# MSSA ATCC25923 [1] = assay: Mouse peritonitis model; assay type: in vivo
# Experimental: The mice were infected by peritoneal injection with different S. aureus strains, including MSSA ATCC25923 (5 × 10^8 CFU), MRSA ATCC43300 (5 × 10^8 CFU) and high virulent CVCC546 (5 × 10^7 CFU), and treated with a single dose of drugs ([…], 20, 30 and 40 mg/kg for ATCC43300 and CVCC546) at 10 min after infection. Twenty-four hours after treatment, the mice were killed and peritoneal fluids were obtained by washing with 5 ml ice-cold PBS. The total number of bacteria in the fluids was determined before any further procedures and then divided into two equal fractions of 1.5 ml each for the following purposes: i) for extracellular bacteria quantification, one fraction was centrifuged for 10 min at 4 °C (300 g) and the supernatant CFU count was quantified and ii) for intracellular bacteria quantification, the other fraction was centrifuged for 5 min at 4 °C (1,000 rpm). The cells were collected and treated with 100 μg/ml gentamicin (MSSA ATCC25923) or 50 μg/ml lysostaphin (MRSA ATCC43300 and high virulent CVCC546) for 1 h at 37 °C to kill extracellular bacteria. The cells were washed twice with ice-cold PBS to remove any anti-extracellular bacterial drug. Subsequently, the cells were lysed and counted as described above for the in vitro experiment method[14],[54].
# IL-1β = assay: Cytokine ELISA in S. aureus-infected RAW 264.7 cells; assay type: cell-based, mouse; conditions: 25 μg/ml, 24 h after infection with MRSA ATCC43300; range over treatments
# Experimental: (§1) To investigate the effects of MP1102 and NZ2114 on cytokine levels in cells infected with S. aureus, RAW264.7 cells (2.5 × 10^5 cells/ml) seeded into 12-well plates were incubated with MRSA ATCC43300 (MOI = 100:1) for 30 min followed by treatment with 50 μg/ml lysostaphin for 1 h to remove non-phagocytosed bacteria. The cells were then treated with 25 μg/ml MP1102, NZ2114 and vancomycin for 12 h and 24 h. Cell-free culture supernatants were collected and the concentrations of cytokines (TNF-α, IL-1β and IL-10) were determined by Jiaxuan Biotech. Co. Ltd. (Beijing, China) using an ELISA kit[58],[59].
# IL-10 = assay: as above; assay type: cell-based, mouse; conditions: 25 μg/ml, 24 h after treatment
# Experimental: as §1
# macrophages = conditions: at 24 h; cited from earlier work
# From the text: Due to several limitations (including protein binding conditions and differences in the pharmacokinetics) in the in vitro macrophage intracellular model, an in vivo mouse peritonitis model was also examined to further evaluate the intracellular efficiency of MP1102 and NZ2114. The intracellular bacterial killing efficacy of MP1102 and NZ2114 was decreased in vivo compared to extracellular killing, though the difference was less than the in vitro model, which may be related to the complex in vivo environment weakening the antibacterial efficiency and the eradication of extracellular bacteri ...
# MRSA ATCC43300 [2] = assay: Extracellular dose-response in broth, 24 h; assay type: cell-based, Staphylococcus aureus
# Experimental: (§2) Dose-response curves for the extracellular activities of the peptides were performed as previously described with some modifications[2],[14],[56],[57]. For extracellular activity, MSSA ATCC25923, MRSA ATCC43300 and high virulent S. aureus CVCC546 cells were adjusted to a density of 10^5 CFU/ml.
# (§3) The Hill equation was used to analyze the dose-effect relationships of the intracellular and extracellular activities of MP1102 and NZ2114 against S. aureus. The Emax, Cs and goodness of fit (R^2) were calculated by non-linear regression using GraphPad Prism version 6 (GraphPad Prism Software, San Diego, CA, USA). The other statistical procedures, means and SEMs were performed and calculated using IBM SPSS Statistics 21.0.
# [3] = test system: Virulent S. aureus CVCC546; assay: Extracellular dose-response in broth, 24 h; assay type: cell-based, Staphylococcus aureus
# Experimental: as §2, §3
# MSSA ATCC25923 [4] = assay: Extracellular dose-response in broth, 24 h; assay type: cell-based, Staphylococcus aureus
# Experimental: as §2, §3
# RAW 264.7 macrophages = assay type: cell-based, mouse; conditions: 24 h, MTT
# Experimental: The cytotoxicity of MP1102 and NZ2114 was tested by a colorimetric 3-(4, 5-dimethyl-2-thiazolyl)-2, 5-diphenyl-2-H-tetrazolium bromide (MTT) assay. Cells were added into 96-well microtiter plates (2.5 × 10^4 cells/well) and incubated for 24 h. After another 24 h incubation with MP1102 and NZ2114 (1 to 256 μg/ml), MTT solution was added and incubated for 4 h. Followed the removing of the MTT, dimethyl sulfoxide (DMSO) (150 μl/well) was added and the absorbance was measured at 570 nm. Untreated cells were used as a control. The cell survival rate was calculated using the following formula: survival rate (%) = Abs570 nm of treated sample / Abs570 nm of control × 100. The cytotoxicity detection was repeated in triplicate.
# 118 were incubated with 1-256 μg/ml for 24 h and subsequently cell viability was determined using the MTT
# 119 assay. Results are means ± S.D. for three experiments.
# (1 picture or pasted object on this page, not shown here)
# [5] = test system: high virulent S. aureus CVCC546; assay: Mouse peritonitis model; assay type: in vivo; conditions: 20 mg/kg, 24 h
# Experimental: The mice were infected by peritoneal injection with different S. aureus strains, including MSSA ATCC25923 (5 × 10^8 CFU), MRSA ATCC43300 (5 × 10^8 CFU) and high virulent CVCC546 (5 × 10^7 CFU), and treated with a single dose of drugs (5 mg/kg for ATCC25923, 20, 30 and 40 mg/kg for ATCC43300 and CVCC546) at 10 min after infection. Twenty-four hours after treatment, the mice were killed and peritoneal fluids were obtained by washing with 5 ml ice-cold PBS. The total number of bacteria in the fluids was determined before any further procedures and then divided into two equal fractions of 1.5 ml each for the following purposes: i) for extracellular bacteria quantification, one fraction was centrifuged for 10 min at 4 °C (300 g) and the supernatant CFU count was quantified and ii) for intracellular bacteria quantification, the other fraction was centrifuged for 5 min at 4 °C (1,000 rpm). The cells were collected and treated with 100 μg/ml gentamicin (MSSA ATCC25923) or 50 μg/ml lysostaphin (MRSA ATCC43300 and high virulent CVCC546) for 1 h at 37 °C to kill extracellular bacteria. The cells were washed twice with ice-cold PBS to remove any anti-extracellular bacterial drug. Subsequently, the cells were lysed and counted as described above for the in vitro experiment method[14],[54].
# [6] = test system: Virulent S. aureus CVCC546 phagocytosed by RAW 264.7 macrophages; assay: Intracellular dose-response in RAW 264.7 macrophages, 24 h; assay type: cell-based, Staphylococcus aureus
# Experimental: (§4) For intracellular activity, RAW 264.7 macrophages (2.5 × 10^5 cells/ml) were seeded into a 6-well plate (1.5 ml/well) and cultured for 24 h in DMEM with 10% FBS (without antibiotics). Meanwhile, mid-log phase S. aureus strains (MSSA ATCC25923, MRSA ATCC43300 and high virulent CVCC546) were collected by centrifugation, diluted to a concentration of 2.5 × 10^7 CFU/ml in DMEM with 10% FBS (without antibiotic), and incubated with RAW 264.7 macrophages (1.5 ml/well) for 0.5 h. In total, 100 μg/ml gentamicin (for MSSA ATCC25923) or 50 μg/ml lysostaphin (for MRSA ATCC43300 and virulent CVCC546) was added to the cells and incubated for 1 h to remove non-phagocytosed bacteria. […] The numbers of intracellular bacteria were measured at 0 h and 24 h using the above method.
# as §3
# [7] = test system: MSSA ATCC25923 phagocytosed by RAW 264.7 macrophages; assay: as above; assay type: cell-based, Staphylococcus aureus; conditions: Hill equation
# Experimental: as §4, §3
# [8] = test system: MRSA ATCC43300 phagocytosed by RAW 264.7 macrophages; assay: as above; assay type: cell-based, Staphylococcus aureus
# Experimental: as §4, §3
# MRSA ATCC43300 [9] = assay: MIC in MHB at pH 7.3 and 5.0; assay type: cell-based; conditions: Staphylococcus aureus
# MSSA ATCC25923 [10] = assay: MIC in MHB at pH 7.3 and 5.0; assay type: cell-based; conditions: Staphylococcus aureus
# [11] = test system: virulent staphylococcal strains; conditions: relative efficacy; cited from earlier work
# From the text: This study is the first evaluation of the intracellular anti-staphylococcal properties of the NZ2114 derivative MP1102 using both in vitro and in vivo methods. […] As a corresponding in vivo mouse model, RAW 264.7 macrophages were chosen to evaluate in vitro intracellular activity in this study.
# [12] = Hill equation, 95% CI in brackets
# [13] = change at 24 h from original inoculum, extrapolated, Hill equation
# [14] = static concentration, graphical interpolation
# [15] = Intracellular, Hill equation, 95% CI in brackets
# [16] = Intracellular, change at 24 h from original inoculum, extrapolated, Hill equation
structure (smiles),measurement,setting,value
"CC[C@H](C)[C@@H]1NC(=O)[C@H](CO)NC(=O)[C@H](CCCCN)NC(=O)[C@@H]2CSSC[C@@H](C(=O)N[C@@H](Cc3ccc(O)cc3)C(=O)O)NC(=O)[C@H](CCCCN)NC(=O)[C@@H]3CSSC[C@H](NC(=O)[C@H](CCCCN)NC(=O)[C@H](C(C)C)NC(=O)[C@H](CC(=O)O)NC(=O)[C@H](CC(=O)O)NC(=O)[C@H](CCC(=O)O)NC(=O)[C@H](CCC(=O)O)NC(=O)[C@H](Cc4c[nH]c5ccccc45)NC(=O)[C@@H]4CCCN4C(=O)CNC(=O)[C@H](CC(N)=O)NC(=O)[C@@H](NC(=O)CNC(=O)[C@H](Cc4ccccc4)NC(=O)CN)CSSC[C@H](NC(=O)[C@H](Cc4ccc(O)cc4)NC(=O)CNC(=O)CNC(=O)[C@H](CCCCN)NC(=O)[C@H](Cc4ccc(O)cc4)NC(=O)CNC(=O)[C@H](CCCCN)NC1=O)C(=O)N[C@@H](C)C(=O)N[C@@H](CCCCN)C(=O)NCC(=O)NCC(=O)N[C@@H](Cc1ccccc1)C(=O)N[C@@H](C(C)C)C(=O)N3)C(=O)N[C@@H](Cc1c[nH]cn1)C(=O)N[C@@H](CC(N)=O)C(=O)N[C@@H](Cc1c[nH]cn1)C(=O)N2 [MP1102] (HELM PEPTIDE1{G.F.G.C.N.G.P.W.E.E.D.D.V.K.C.H.N.H.C.K.S.I.K.G.Y.K.G.G.Y.C.A.K.G.G.F.V.C.K.C.Y}$PEPTIDE1,PEPTIDE1,4:R3-30:R3|PEPTIDE1,PEPTIDE1,15:R3-37:R3|PEPTIDE1,PEPTIDE1,19:R3-39:R3$$$V2.0; N-terminus and C-terminus assumed; bridges inferred)",colonies on the plates,"MSSA ATCC25923 [1]; 20 mg/kg and 10 mg/kg dose, data not shown",no colonies were observed
same,suppressed production of IL-1β,IL-1β,18.7 to 49.5 pg/mL
same,"IL-10 level change, in contrast to the decrease with NZ2114 and vancomycin",IL-10,4.8 pg/mL
CN[C@H](CC(C)C)C(=O)N[C@H]1C(=O)N[C@@H](CC(N)=O)C(=O)N[C@H]2C(=O)N[C@H]3C(=O)N[C@H](C(=O)N[C@H](C(=O)O)c4cc(O)cc(O)c4-c4cc3ccc4O)[C@H](O)c3ccc(c(Cl)c3)Oc3cc2cc(c3O[C@@H]2O[C@H](CO)[C@@H](O)[C@H](O)[C@H]2O[C@H]2C[C@](C)(N)[C@H](O)[C@H](C)O2)Oc2ccc(cc2Cl)[C@H]1O [Vancomycin],effect on bacterial load,"MSSA ATCC25923 [1]; 5 mg/kg, 24 h",no significant effects were observed
same,IL-10 levels decreased by,IL-10,12.0 pg/mL
same,accumulation in macrophages,macrophages,up to 8 fold
same,EC50,MRSA ATCC43300 [2]; [12],5.40 multiples of the MIC
same,"Emax (log CFU, 95% CI)",MRSA ATCC43300 [2]; [13],−5.89 log CFU
same,Cs,MRSA ATCC43300 [2]; [14],~5.88 multiples of the MIC
same,EC50,[3]; [12],0.92 multiples of the MIC
same,"Emax (log CFU, 95% CI)",[3]; [13],−5.85 log CFU
same,Cs,[3]; [14],~1.10 multiples of the MIC
same,EC50,MSSA ATCC25923 [4]; [12],1.87 multiples of the MIC
same,"Emax (log CFU, 95% CI)",MSSA ATCC25923 [4]; [13],−5.37 log CFU
same,Cs,MSSA ATCC25923 [4]; [14],~1.48 multiples of the MIC
same,survival rate,RAW 264.7 macrophages; 128 μg/ml,100%
same,survival rate,RAW 264.7 macrophages; 256 μg/ml,85.9%
same,"log reduction, extracellular",[5],4.9 log
same,"log reduction, intracellular",[5],3.7 log
same,"log reduction, total",[5],3.9 log
same,EC50,[6]; [15],3.53 multiples of the MIC
same,"Emax (log CFU, 95% CI)",[6]; [16],0.46 log CFU
same,resistant rates for the highest test concentrations compared to the untreated group,"[6]; intracellular, 24 h",99.68%
same,EC50,[7]; 95% CI in brackets,24.29 multiples of the MIC
same,"Emax (log CFU, 95% CI)","[7]; change at 24 h from original inoculum, extrapolated to infinitely high concentration",−4.85 log CFU
same,EC50,[8]; [15],1.10 multiples of the MIC
same,"Emax (log CFU, 95% CI)",[8]; [16],0.43 log CFU
same,resistant rates for the highest test concentrations compared to the untreated group,"[8]; intracellular, 24 h",93.03%
same,MIC,"MRSA ATCC43300 [9]; pH 5, read-out: MICs",1 µg/mL
same,MIC,"MRSA ATCC43300 [9]; pH 7.3, read-out: MICs",1 µg/mL
same,MIC,"MSSA ATCC25923 [10]; pH 5, read-out: MICs",< 0.004 µg/mL
same,MIC,"MSSA ATCC25923 [10]; pH 7.3, read-out: MICs",0.125 µg/mL
CC[C@H]1OC(=O)[C@H](C)[C@@H](O[C@H]2C[C@@](C)(OC)[C@@H](O)[C@H](C)O2)[C@H](C)[C@@H](O[C@@H]2O[C@H](C)C[C@H](N(C)C)[C@H]2O)[C@](C)(O)C[C@@H](C)CN(C)[C@H](C)[C@@H](O)[C@]1(C)O [azithromycin],Emax,[11],−0.5 log CFU
C[C@@H](O)[C@H]1C(=O)N2C(C(=O)O)=C(SCCN=CN)C[C@H]12 [imipenem],Emax,[11],−0.9 log CFU
Cc1onc(-c2ccccc2)c1C(=O)N[C@@H]1C(=O)N2[C@@H]1SC(C)(C)[C@@H]2C(=O)O [oxacillin],Emax,[11],−0.68 log CFU
